The values that follow come from patent publication US20230066011A1, “PYRROLOPYRIMIDINE DERIVATIVE, AND PHARMACEUTICAL COMPOSITION FOR PREVENTING OR TREATING PROTEIN KINASE-RELATED DISEASE COMPRISING SAME AS ACTIVE INGREDIENT” (VORONOI CO., LTD., priority 2019, published 2023).

Where only a bound is given, the exact number is not on record here.

The target of experiment [1] is T1, human GST-DYRK1A (Homo sapiens, UniProt Q13627).
T1 construct: purified human GST-DYRK1A (full length, Thermo Scientifics) enzyme; purchased Thermo Scientifics
The experiment can be described thus: GST-DYRK1A enzyme inhibition, ADP-Glo kinase assay. The conditions noted are these: ATP 10 μM, GST-DYRK1A full length, read-out: DYRK1 IC50. In kind it is biochemical. Summed up: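 Full-length enzyme (10 ng) was incubated with 10 μM ATP and a specific substrate for 1 h at 25 °C in 40 mM Tris-HCl pH 7.4, 20 mM MgCl2, 0.5 mg/mL BSA, 50 μM DTT. Luminescence was read against a solvent control, and IC50 values were derived from 3 data sets.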

In experiment [2] the target is T2, human GST-CLK1 (Homo sapiens, UniProt P49759).
T2 construct: purified human GST-CLK1 (129-end, SignalChem) enzyme; purchased SignalChem
The experiment can be described thus: GST-CLK1 enzyme inhibition, ADP-Glo kinase assay. In kind it is biochemical. Particulars: ATP 10 μM, GST-CLK1 129-end. The procedure, abridged:
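ADP-Glo luminescence read-out, relative to untreated solvent control, gave IC50 (nM) from triplicate data sets. Reactions ran an hour at 25° C with 3 ng GST-CLK1 (residues 129-end), 10 μM ATP and specific substrate in Tris-HCl pH 7.4 buffer with MgCl2, BSA and DTT.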

For experiment [3], the system named is MDA-MB-231 cell line. The experiment in a line: Inhibition of proliferation of MDA-MB-231 cancer cells (Cell Titer-Glo). In kind it is cell-based. The conditions noted are these: Homo sapiens, 72 hours. Summed up:
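Growth inhibition over 72 h: cells seeded at 2,000/well and dosed at eleven 3-fold-spaced final concentrations from 10.000000 μM. Read-out is ATP luminescence (Cell Titer-Glo, 10 min, room temperature), with GI50 derived from it.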
(In general: ATP-based viability assays read luminescence as a measure of living cells.)

Experiment [4] concerns SHP-77. The experiment in a line: Inhibition of proliferation of SHP-77 cancer cells (Cell Titer-Glo). The conditions noted are these: Homo sapiens, SHP77, 72 hours. The experiment is classed as cell-based. As to the method:
To evaluate an inhibitory effect on the proliferation of cancer cells, each of an MDA-MB-231 cell line (Korean Cell Line Bank #30026) and an MDA-MB-468 cell line as triple-negative breast cancer cell lines, and SHP-77 (ATCC #CRL-2195) as a small-cell lung cancer cell line was cultured in DMEM (HyClone #SH30243) or an RPMI medium (HyClone #SH3027.01) to analyze a cell growth rate. More specifically, a cell line was plated on a 96-well flat bottom plate (Corning #3903) at a density of 2,000 cells/100 μL per well, and then treated with 11 concentrations of the Example compound, a solution of which was diluted 3-fold so that a final concentration of the compound was 10.000000, 3.333333, 1.111111, 0.370370, 0.123457, 0.041152, 0.013717, 0.004572, 0.001524, 0.000508, and 0.000169 μM. After 72 hours, each of the culture media was treated with 100 μL of Cell Titer-Glo (Promega G7573), and then cultured at room temperature for 10 minutes. Then, a degree of luminescence was measured using a microplate reader. A GI50 value was calculated from the measured degree of luminescence using Prism (Version 8.2 GraphPad) software.

Experiment [5] concerns the target LRRK2 (Homo sapiens, UniProt Q5S007). The experiment can be described thus: LRRK2 enzyme inhibition, ADP-Glo kinase assay. In kind it is biochemical. Particulars: ATP 10 μM. Further details: purchased Invitrogen PR8604B. The procedure, abridged:
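ADP-Glo luminescent read-out of ADP formed by purified human LRRK2 enzyme (25 ng), 10 μM ATP, 0.2 μg substrate, 25° C for 2 h, Tris-HCl pH 7.4 buffer with MgCl2, BSA, DTT. Inhibition versus untreated solvent control over twelve final concentrations (50 μM downward) gives IC50.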
Background: In ADP-Glo the light output rises with the ADP produced.

Experiment [6] concerns the target LRRK2 (G2019S) (Homo sapiens, UniProt Q5S007, G2019S). The experiment can be described thus: LRRK2 G2019S enzyme inhibition, ADP-Glo kinase assay. The experiment is classed as biochemical. Further details: purchased SignalChem L10-12GG. The conditions noted are these: ATP 25 μM. Summed up:
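IC50 derived from luminescent ADP-Glo readout against untreated solvent control, twelve final compound concentrations from 50 μM downward. Reaction: recombinant human LRRK2 G2019S enzyme, 25 μM ATP, substrate, pH 7.4 Tris buffer with MgCl2/BSA/DTT, 25° C. for 2 hours.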

T2 sequence (P49759 129-484 limits assumed): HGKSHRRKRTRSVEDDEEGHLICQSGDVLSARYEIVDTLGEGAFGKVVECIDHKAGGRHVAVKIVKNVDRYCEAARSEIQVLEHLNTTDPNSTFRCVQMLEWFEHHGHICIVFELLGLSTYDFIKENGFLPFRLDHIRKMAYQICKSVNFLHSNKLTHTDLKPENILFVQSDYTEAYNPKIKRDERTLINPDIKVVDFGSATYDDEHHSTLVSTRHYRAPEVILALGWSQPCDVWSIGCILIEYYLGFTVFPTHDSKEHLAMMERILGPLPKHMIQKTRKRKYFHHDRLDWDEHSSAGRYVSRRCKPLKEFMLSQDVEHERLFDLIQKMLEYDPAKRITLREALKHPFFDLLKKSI
Sequence of LRRK2 (G2019S) (Q5S007 970-2527 G2019S limits assumed): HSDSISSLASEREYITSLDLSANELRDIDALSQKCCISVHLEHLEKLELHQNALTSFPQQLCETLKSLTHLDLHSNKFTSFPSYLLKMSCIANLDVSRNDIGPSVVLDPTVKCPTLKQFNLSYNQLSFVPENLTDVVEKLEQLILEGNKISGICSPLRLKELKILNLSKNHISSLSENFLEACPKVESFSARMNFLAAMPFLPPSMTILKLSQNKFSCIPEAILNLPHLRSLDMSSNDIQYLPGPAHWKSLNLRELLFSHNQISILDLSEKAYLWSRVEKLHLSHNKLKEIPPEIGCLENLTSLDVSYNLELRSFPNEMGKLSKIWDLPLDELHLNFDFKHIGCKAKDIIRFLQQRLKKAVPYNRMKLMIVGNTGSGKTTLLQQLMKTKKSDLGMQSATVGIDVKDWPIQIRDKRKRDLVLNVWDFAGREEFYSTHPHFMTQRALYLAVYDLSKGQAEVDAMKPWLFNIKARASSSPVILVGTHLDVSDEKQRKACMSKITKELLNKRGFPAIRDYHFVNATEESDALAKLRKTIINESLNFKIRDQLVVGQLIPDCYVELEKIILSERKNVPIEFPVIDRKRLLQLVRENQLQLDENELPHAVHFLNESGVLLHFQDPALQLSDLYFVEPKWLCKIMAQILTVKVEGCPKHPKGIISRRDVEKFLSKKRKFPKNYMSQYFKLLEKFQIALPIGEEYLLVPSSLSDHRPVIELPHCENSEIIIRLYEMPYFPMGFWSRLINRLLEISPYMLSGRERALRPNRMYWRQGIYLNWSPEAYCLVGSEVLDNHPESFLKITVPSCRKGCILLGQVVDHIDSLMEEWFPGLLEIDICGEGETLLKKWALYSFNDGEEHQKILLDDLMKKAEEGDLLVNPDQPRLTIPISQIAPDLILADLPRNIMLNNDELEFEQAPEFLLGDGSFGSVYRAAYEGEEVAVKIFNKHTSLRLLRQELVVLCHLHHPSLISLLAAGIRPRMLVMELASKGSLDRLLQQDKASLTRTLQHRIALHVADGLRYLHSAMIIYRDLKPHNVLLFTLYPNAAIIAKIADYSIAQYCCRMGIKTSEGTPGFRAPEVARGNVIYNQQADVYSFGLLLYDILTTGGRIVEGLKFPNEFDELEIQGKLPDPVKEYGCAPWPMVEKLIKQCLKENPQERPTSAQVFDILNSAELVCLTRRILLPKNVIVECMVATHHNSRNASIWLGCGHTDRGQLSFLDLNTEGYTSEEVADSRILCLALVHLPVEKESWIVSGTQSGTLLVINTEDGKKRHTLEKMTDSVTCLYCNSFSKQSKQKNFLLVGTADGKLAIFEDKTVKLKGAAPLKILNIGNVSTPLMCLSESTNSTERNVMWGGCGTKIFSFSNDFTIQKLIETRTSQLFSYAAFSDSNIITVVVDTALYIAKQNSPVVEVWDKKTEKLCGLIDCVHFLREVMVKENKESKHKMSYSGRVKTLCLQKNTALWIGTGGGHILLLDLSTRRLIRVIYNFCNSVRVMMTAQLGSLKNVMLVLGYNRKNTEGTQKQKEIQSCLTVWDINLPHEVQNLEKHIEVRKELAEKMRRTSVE
Sequence of LRRK2 (Q5S007 970-2527 limits assumed): as the sequence (Q5S007 970-2527 G2019S limits assumed) above, with S1050G counted along it

For the molecule `COc1cc(S(=O)(=O)N2CCC(N3CCOCC3)CC2)ccc1Nc1nc(NCC2CC2)c2c(C#N)c[nH]c2n1` [Example 92, 4-((cyclopropylmethyl)amino)-2-((2-methoxy-4-((4-morpholinopiperidin-1-yl)sulfonyl)phenyl)amino)-7H-pyrrolo[2,3-d]pyrimidine-5-carbonitrile], the IC50 (commonly the point on the concentration scale where inhibition reaches its midpoint) in experiment [1] was 0.301 to 1 µM; in experiment [2], 0.301 to 1 µM; in experiment [5], less than 0.1 µM. Moreover, the GI50 in experiment [3] and in experiment [4] was less than 50 nM each time.
For `COc1cc(S(=O)(=O)N2CCOCC2)ccc1Nc1nc(NC2CC2)c2c(C#N)c[nH]c2n1` [Example 70, 4-(cyclopropylamino)-2-((2-methoxy-4-(morpholinosulfonyl)phenyl)amino)-7H-pyrrolo[2,3-d]pyrimidine-5-carbonitrile], the IC50 in experiment [1] was 0.301 to 1 µM; in experiment [2], 0.301 to 1 µM; in experiment [5], less than 0.1 µM; in experiment [6] it was less than 0.1 µM. The GI50 in experiment [3] and in experiment [4] was 301 to 1000 nM each time.
In the case of `CNc1nc(Nc2ccc(S(=O)(=O)N3CCOCC3)cc2OC)nc2[nH]cc(C(F)(F)F)c12` [Example 160, N^2-(2-methoxy-4-(morpholinosulfonyl)phenyl)-N^4-methyl-5-(trifluoromethyl)-7H-pyrrolo[2,3-d]pyrimidine-2,4-diamine], the IC50 was 0.301 to 1 µM in experiment [1], 0.301 to 1 µM in experiment [2], less than 0.1 µM in experiment [5] and 0.301 to 1 µM in experiment [6]. Moreover, the 50% growth inhibitory concentration (GI50) (as a rule, the concentration that inhibits growth by half) was 301 to 1000 nM in experiment [3] and 51 to 100 nM in experiment [4].
As to `CNc1nc(Nc2ccc(S(=O)(=O)N3CCOCC3)cc2OC)nc2[nH]cc(C#N)c12` [Example 62, 2-((2-methoxy-4-(morpholinosulfonyl)phenyl)amino)-4-(methylamino)-7H-pyrrolo[2,3-d]pyrimidine-5-carbonitrile], the IC50 in experiment [1] was 0.301 to 1 µM; in experiment [2], 0.301 to 1 µM; in experiment [5] it was less than 0.1 µM; in experiment [6] it was less than 0.1 µM. Besides, the concentration for 50% growth inhibition (GI50) in experiment [3] and in experiment [4] was 51 to 100 nM in each case.
For `CCNc1nc(Nc2ccc(S(=O)(=O)N3CCOCC3)cc2OC)nc2[nH]cc(C#N)c12` [Example 63, 4-(ethylamino)-2-((2-methoxy-4-(morpholinosulfonyl)phenyl)amino)-7H-pyrrolo[2,3-d]pyrimidine-5-carbonitrile], the concentration for half-maximal inhibition (IC50) in experiment [1] was 0.301 to 1 µM; in experiment [2], 0.301 to 1 µM; in experiment [5] it was less than 0.1 µM; in experiment [6] it was less than 0.1 µM. Further, the GI50 in experiment [3] and in experiment [4] was 301 to 1000 nM in each case.
In the case of `COCC(C)(C)Nc1nc(Nc2ccc(S(=O)(=O)N3CCC(N4CCOCC4)CC3)cc2OC)nc2[nH]cc(C#N)c12` [Example 93, 4-((1-methoxy-2-methylpropan-2-yl)amino)-2-((2-methoxy-4-((4-morpholinopiperidin-1-yl)sulfonyl)phenyl)amino)-7H-pyrrolo[2,3-d]pyrimidine-5-carbonitrile], the IC50 in experiment [1] was 0.301 to 1 µM; in experiment [2] it was 0.101 to 0.3 µM; in experiment [5], less than 0.1 µM. Also, the GI50 in experiment [3] and in experiment [4] was less than 50 nM each time.
As for `CCNc1nc(Nc2ccc(S(=O)(=O)N3CCOCC3)cc2OC)nc2[nH]cc(C(F)(F)F)c12` [Example 191, N^4-ethyl-N^2-(2-methoxy-4-(morpholinosulfonyl)phenyl)-5-(trifluoromethyl)-7H-pyrrolo[2,3-d]pyrimidine-2,4-diamine], the IC50 was 0.301 to 1 µM in experiment [1], 0.301 to 1 µM in experiment [2], 0.101 to 0.3 µM in experiment [5] and 0.301 to 1 µM in experiment [6]. For the same molecule, the GI50 in experiment [3] lay within 301 to 1000 nM; in experiment [4], 101 to 300 nM.
As for `COCC(C)(C)Nc1nc(Nc2ccc(S(=O)(=O)N3CCOCC3)cc2OC)nc2[nH]cc(C#N)c12` [Example 78, 4-((1-methoxy-2-methylpropan-2-yl)amino)-2-((2-methoxy-4-(morpholinosulfonyl)phenyl)amino)-7H-pyrrolo[2,3-d]pyrimidine-5-carbonitrile], the IC50 was 0.301 to 1 µM in experiment [1], 0.301 to 1 µM in experiment [2] and less than 0.1 µM in experiment [5]. Further, the GI50 in experiment [3] and in experiment [4] was less than 50 nM throughout.
Turning to `COCCNc1nc(Nc2ccc(S(=O)(=O)N3CCC(N4CCOCC4)CC3)cc2OC)nc2[nH]cc(C(F)(F)F)c12` [Example 170, N^2-(2-methoxy-4-((4-morpholinopiperidin-1-yl)sulfonyl)phenyl)-N^4-(2-methoxyethyl)-5-(trifluoromethyl)-7H-pyrrolo[2,3-d]pyrimidine-2,4-diamine], the IC50 in experiment [1] was 0.101 to 0.3 µM; in experiment [2], less than 0.1 µM; in experiment [5], less than 0.1 µM; in experiment [6] it was less than 0.1 µM. The GI50 lay within 301 to 1000 nM in experiment [3] and 101 to 300 nM in experiment [4].
Consider `COc1cc(S(=O)(=O)N2CCC(N3CCOCC3)CC2)ccc1Nc1nc(NC2CCCC2)c2c(C(F)(F)F)c[nH]c2n1` [Example 187, N^4-cyclopentyl-N^2-(2-methoxy-4-((4-morpholinopiperidin-1-yl)sulfonyl)phenyl)-5-(trifluoromethyl)-7H-pyrrolo[2,3-d]pyrimidine-2,4-diamine], for which the IC50 in experiment [1] is 0.301 to 1 µM; in experiment [2], 0.301 to 1 µM; in experiment [5], less than 0.1 µM. Besides, the GI50 in experiment [3] and in experiment [4] was 301 to 1000 nM in each case.
Consider `COc1cc(S(=O)(=O)N2CCC(N3CCOCC3)CC2)ccc1Nc1nc(NC(C)C)c2c(C(F)(F)F)c[nH]c2n1` [Example 165, N^4-isopropyl-N^2-(2-methoxy-4-((4-morpholinopiperidin-1-yl)sulfonyl)phenyl)-5-(trifluoromethyl)-7H-pyrrolo[2,3-d]pyrimidine-2,4-diamine], for which the IC50 was 0.301 to 1 µM in experiment [1], 0.301 to 1 µM in experiment [2], less than 0.1 µM in experiment [5] and 0.101 to 0.3 µM in experiment [6]. The GI50 was less than 50 nM in experiment [3] and 51 to 100 nM in experiment [4].
For `COc1cc(S(=O)(=O)N2CCC(N3CCOCC3)CC2)ccc1Nc1nc(NC2CCC2)c2c(C(F)(F)F)c[nH]c2n1` [Example 183, N^4-cyclobutyl-N^2-(2-methoxy-4-((4-morpholinopiperidin-1-yl)sulfonyl)phenyl)-5-(trifluoromethyl)-7H-pyrrolo[2,3-d]pyrimidine-2,4-diamine], the IC50 was 0.301 to 1 µM in experiment [1], 0.301 to 1 µM in experiment [2], less than 0.1 µM in experiment [5] and 0.101 to 0.3 µM in experiment [6]. Moreover, the GI50 in experiment [3] and in experiment [4] was 301 to 1000 nM in each case.
In the case of `COc1cc(S(=O)(=O)N2CCOCC2)ccc1Nc1nc(NC2CCCC2)c2c(C(F)(F)F)c[nH]c2n1` [Example 186, N^4-cyclopentyl-N^2-(2-methoxy-4-(morpholinosulfonyl)phenyl)-5-(trifluoromethyl)-7H-pyrrolo[2,3-d]pyrimidine-2,4-diamine], the IC50 in experiment [1] is 0.301 to 1 µM; in experiment [2], 0.301 to 1 µM; in experiment [5], 0.101 to 0.3 µM. Besides, the GI50 in experiment [3] and in experiment [4] was 301 to 1000 nM throughout.
